melting point [°C] | SMILES
166 to 169 | CC(C)(F)c1cnn2c(-c3ccc(F)c(-c4ccc(F)cc4C#N)c3F)cnc2n1 [Example 3, 3′-[3-(1-Fluoro-1-methylethyl)imidazo[1,2-b][1,2,4]triazin-7-yl]-4,2′,6′-trifluorobiphenyl-2-carbonitrile]
177 to 179 | CC(C)(O)c1cnn2c(-c3ccc(F)c(-c4c(F)cccc4C#N)c3F)cnc2n1 [Example 2, 3′-[3-(1-Hydroxy-1-methylethyl)imidazo[1,2-b][1,2,4]triazin-7-yl]-6,2′,6′-trifluorobiphenyl-2-carbonitrile]
